# According to US20220323406A1, “METHODS AND COMPOSITIONS FOR DIFFERENTIATING STEM CELLS” (Massachusetts Institute of Technology, priority 2019, published 2022):
# Structures can show the parent of a compound that is named as a salt.
# Key:
# [1] = system: ENR+CD organoids (ISC to Paneth cell differentiation); assay: Primary screen: CCh-stimulated lysozyme secretion LYZ.S, 2.5-D 384-well ENR+CD organoid differentiation; assay type: cell-based, mouse; settings: primary screen
# From the text: (§1) High-throughput screening.
# [2] = system: ENR+CD organoids (ISC to Paneth cell differentiation); assay: Primary screen: basal (non-stimulated) lysozyme secretion LYZ.NS, 2.5-D 384-well ENR+CD organoid differentiation; assay type: cell-based, mouse
# From the text: as §1
# ENR+CD organoids = assay: Primary screen: ATP (CellTiter-Glo 3D, CTG) cell number/viability, 2.5-D 384-well ENR+CD organoids; settings: primary screen; for Z.CTG: standard z score;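 as to all read-outs here: compounds given at plating and again on day 3 over a 6-day differentiation from ENR+CV stem-cell-enriched precursors, ATP measured on day 6, plate median as control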
# [3] = primary screen, standard z score, dose 0.08 uM
# [4] = primary screen, standard z score, dose 0.40 uM
# [5] = primary screen, standard z score, dose 2.00 uM
# [6] = primary screen, standard z score, dose 10.00 uM
# [7] = 1st dose row of the treatment (0.08 uM by row order; dose not reprinted)
# [8] = 2nd dose row of the treatment (0.40 uM by row order; dose not reprinted)
# [9] = 3rd dose row of the treatment (2.00 uM by row order; dose not reprinted)
# [10] = 4th dose row of the treatment (10.00 uM by row order; dose not reprinted)
# [11] = dose 0.08 uM, FC vs plate median
# [12] = dose 0.40 uM, FC vs plate median
# [13] = dose 2.00 uM, FC vs plate median
# [14] = dose 10.00 uM, FC vs plate median
# [15] = primary screen, dose 0.08 uM, standard z score
# [16] = primary screen, dose 0.40 uM, standard z score
# [17] = primary screen, dose 2.00 uM, standard z score
# [18] = primary screen, dose 10.00 uM, standard z score
# [19] = dose 0.08 uM, FC relative to plate median
# [20] = dose 0.40 uM, FC relative to plate median
# [21] = dose 2.00 uM, FC relative to plate median
# [22] = dose 10.00 uM, FC relative to plate median
SMILES,Dose.FC.LYZ.S ([1]; dose 0.08 uM) [log2 fold change],Dose.FC.LYZ.S ([1]; dose 0.40 uM) [log2 fold change],Dose.FC.LYZ.S ([1]; dose 2.00 uM) [log2 fold change],Dose.FC.LYZ.S ([1]; dose 10.00 uM) [log2 fold change],"Dose.FC.LYZ.NS ([2]; primary screen, dose 0.08 uM) [log2 fold change]","Z.LYZ.NS (standard z score) ([2]; primary screen, dose 0.08 uM)","Dose.FC.LYZ.NS ([2]; primary screen, dose 0.40 uM) [log2 fold change]","Z.LYZ.NS (standard z score) ([2]; primary screen, dose 0.40 uM)","Dose.FC.LYZ.NS ([2]; primary screen, dose 2.00 uM) [log2 fold change]","Z.LYZ.NS (standard z score) ([2]; primary screen, dose 2.00 uM)","Dose.FC.LYZ.NS ([2]; primary screen, dose 10.00 uM) [log2 fold change]","Z.LYZ.NS (standard z score) ([2]; primary screen, dose 10.00 uM)",Dose.FC.CTG (ENR+CD organoids; dose 0.08 uM) [log2 fold change],Dose.FC.CTG (ENR+CD organoids; dose 0.40 uM) [log2 fold change],Dose.FC.CTG (ENR+CD organoids; dose 2.00 uM) [log2 fold change],Dose.FC.CTG (ENR+CD organoids; dose 10.00 uM) [log2 fold change],Z.CTG (standard z score) (ENR+CD organoids; dose 0.08 uM),Z.CTG (standard z score) (ENR+CD organoids; dose 0.40 uM),Z.CTG (standard z score) (ENR+CD organoids; dose 2.00 uM),Z.CTG (standard z score) (ENR+CD organoids; dose 10.00 uM),further results
Cc1ccccc1C(=O)Nc1ccc(C(=O)N2CCCC(O)c3cc(Cl)ccc32)c(C)c1 (centres unmarked) [Tolvaptan],0.086,0.031,−0.048,−0.150,0.049,0.429,−0.041,−0.355,−0.023,−0.204,−0.093,−0.807,0.095,−0.008,−0.094,−0.104,–,–,–,–,–
CCc1cccc2c3c([nH]c12)C(CC)(CC(=O)O)OCC3 (centres unmarked) [Etodolac],0.034,0.127,0.070,−0.011,0.046,–,0.036,–,0.052,–,−0.009,–,−0.061,0.049,0.008,0.023,–,–,–,–,"Z.LYZ.NS [2, 3]: 0.400; Z.LYZ.NS [2, 4]: 0.314; Z.LYZ.NS [2, 5]: 0.452; Z.LYZ.NS [2, 6]: −0.078"
O=C(O)c1ccc(N2C(=O)/C(=C\c3ccc(-c4ccc([N+](=O)[O-])cc4)o3)C=C2c2ccccc2)cc1 [4E1RCat],0.107,0.038,0.049,0.082,0.100,0.874,−0.018,−0.154,0.151,1.316,0.007,0.062,0.246,0.362,0.006,−0.011,0.587,0.864,0.015,−0.026,"SSMD.LYZ.S_Rep (strictly standardized mean difference) [1, 7]: 0.712; Z.LYZ.S (standard z score) [1, 7]: 0.690; SSMD.LYZ.S_Rep (strictly standardized mean difference) [1, 8]: 0.185; Z.LYZ.S (standard z score) [1, 8]: 0.247; SSMD.LYZ.S_Rep (strictly standardized mean difference) [1, 9]: 0.311; Z.LYZ.S (standard z score) [1, 9]: 0.316; SSMD.LYZ.S_Rep (strictly standardized mean difference) [1, 10]: 0.321; Z.LYZ.S (standard z score) [1, 10]: 0.530; SSMD.LYZ.NS_Rep (strictly standardized mean difference) ([2]; primary screen, 1st dose row of the treatment (0.08 uM by row order; dose not reprinted)): 0.883; SSMD.LYZ.NS_Rep (strictly standardized mean difference) ([2]; primary screen, 2nd dose row of the treatment (0.40 uM by row order; dose not reprinted)): −0.121; SSMD.LYZ.NS_Rep (strictly standardized mean difference) ([2]; primary screen, 3rd dose row of the treatment (2.00 uM by row order; dose not reprinted)): 0.437; SSMD.LYZ.NS_Rep (strictly standardized mean difference) ([2]; primary screen, 4th dose row of the treatment (10.00 uM by row order; dose not reprinted)): 0.053; SSMD.CTG.Rep (strictly standardized mean difference) (ENR+CD organoids; [7]): 0.790; SSMD.CTG.Rep (strictly standardized mean difference) (ENR+CD organoids; [8]): 0.559; SSMD.CTG.Rep (strictly standardized mean difference) (ENR+CD organoids; [9]): 0.022; SSMD.CTG.Rep (strictly standardized mean difference) (ENR+CD organoids; [10]): −0.026"
CCCCc1nc(Cl)c(CO)n1Cc1ccc(-c2ccccc2-c2nnn[n-]2)cc1.[K+] [Losartan Potassium (DuP 753)],–,–,–,–,–,0.449,–,0.329,–,−0.362,–,0.540,–,–,–,–,−0.362,−0.418,−0.193,−0.328,"Dose.FC.LYZ.S (log2 fold change) ([1]; dose 0.08 uM): −0.017; Dose.FC.LYZ.S (log2 fold change) ([1]; dose 0.40 uM): 0.027; Dose.FC.LYZ.S (log2 fold change) ([1]; dose 2.00 uM): −0.080; Dose.FC.LYZ.S (log2 fold change) ([1]; dose 10.00 uM): −0.025; Dose.FC.LYZ.NS (log2 fold change) ([2]; primary screen, dose 0.08 uM): 0.052; Dose.FC.LYZ.NS (log2 fold change) ([2]; primary screen, dose 0.40 uM): 0.038; Dose.FC.LYZ.NS (log2 fold change) ([2]; primary screen, dose 2.00 uM): −0.042; Dose.FC.LYZ.NS (log2 fold change) ([2]; primary screen, dose 10.00 uM): 0.062; Dose.FC.CTG (log2 fold change) (ENR+CD organoids; dose 0.08 uM): −0.152; Dose.FC.CTG (log2 fold change) (ENR+CD organoids; dose 0.40 uM): −0.175; Dose.FC.CTG (log2 fold change) (ENR+CD organoids; dose 2.00 uM): −0.081; Dose.FC.CTG (log2 fold change) (ENR+CD organoids; dose 10.00 uM): −0.137"
O=c1cc(-c2ccc(O)cc2)oc2cc(O)cc(O)c12 [Apigenin],0.192,0.165,0.196,0.098,0.132,1.147,0.130,1.131,0.232,2.021,0.097,0.847,0.246,0.214,0.315,0.026,–,–,–,–,–
O=C(O)c1cccc(-c2noc(-c3ccccc3F)n2)c1 [Ataluren (PTC124)],0.051,0.034,0.058,0.005,0.029,0.253,0.042,0.362,0.131,1.140,0.009,0.077,0.267,−0.340,−0.042,0.006,0.639,−0.813,−0.100,0.013,–
NC(=O)N1c2ccccc2CC(=O)c2ccccc21 [Oxcarbazepine],–,–,–,–,–,–,–,–,–,–,–,–,–,–,–,–,–,–,–,–,"Dose.FC.LYZ.S [1, 11]: 0.043 log2 fold change; Dose.FC.LYZ.S [1, 12]: 0.154 log2 fold change; Dose.FC.LYZ.S [1, 13]: 0.042 log2 fold change; Dose.FC.LYZ.S [1, 14]: −0.057 log2 fold change; Z.LYZ.NS [2, 15]: 0.035; Z.LYZ.NS [2, 16]: −0.001; Z.LYZ.NS [2, 17]: 0.349; Z.LYZ.NS [2, 18]: −0.527; Dose.FC.LYZ.NS ([2]; primary screen; dose 0.08 uM; FC vs plate median): 0.004 log2 fold change; Dose.FC.LYZ.NS ([2]; primary screen; dose 0.40 uM; FC vs plate median): 0.000 log2 fold change; Dose.FC.LYZ.NS ([2]; primary screen; dose 2.00 uM; FC vs plate median): 0.040 log2 fold change; Dose.FC.LYZ.NS ([2]; primary screen; dose 10.00 uM; FC vs plate median): −0.061 log2 fold change; Dose.FC.CTG (ENR+CD organoids; [11]): −0.021 log2 fold change; Dose.FC.CTG (ENR+CD organoids; [12]): −0.103 log2 fold change; Dose.FC.CTG (ENR+CD organoids; [13]): −0.082 log2 fold change; Dose.FC.CTG (ENR+CD organoids; [14]): −0.150 log2 fold change"
C#CCN[C@@H]1CCc2ccccc21 [Rasagiline Mesylate],–,–,–,–,–,–,–,–,–,–,–,–,–,–,–,–,–,–,–,–,"Dose.FC.LYZ.S [1, 19]: 0.140 log2 fold change; Dose.FC.LYZ.S [1, 20]: 0.077 log2 fold change; Dose.FC.LYZ.S [1, 21]: 0.014 log2 fold change; Dose.FC.LYZ.S [1, 22]: 0.026 log2 fold change; Dose.FC.LYZ.NS ([2]; primary screen, dose 0.08 uM, FC relative to plate median): 0.072 log2 fold change; Z.LYZ.NS [2, 15]: 0.631; Dose.FC.LYZ.NS ([2]; primary screen, dose 0.40 uM, FC relative to plate median): 0.013 log2 fold change; Z.LYZ.NS [2, 16]: 0.117; Dose.FC.LYZ.NS ([2]; primary screen, dose 2.00 uM, FC relative to plate median): 0.048 log2 fold change; Z.LYZ.NS [2, 17]: 0.417; Dose.FC.LYZ.NS ([2]; primary screen, dose 10.00 uM, FC relative to plate median): −0.034 log2 fold change; Z.LYZ.NS [2, 18]: −0.294; Dose.FC.CTG (ENR+CD organoids; [19]): 0.154 log2 fold change; Dose.FC.CTG (ENR+CD organoids; [20]): 0.103 log2 fold change; Dose.FC.CTG (ENR+CD organoids; [21]): 0.041 log2 fold change; Dose.FC.CTG (ENR+CD organoids; [22]): 0.104 log2 fold change"
COc1cccc(C=NCCN=Cc2cccc(OC)c2[O-])c1[O-].[Cl-].[Mn+3] [EUK 134],0.025,0.057,−0.034,−0.132,0.068,–,0.003,–,0.028,–,−0.085,–,−0.015,−0.162,0.091,−0.024,–,–,–,–,"Z.LYZ.NS [2, 3]: 0.594; Z.LYZ.NS [2, 4]: 0.026; Z.LYZ.NS [2, 5]: 0.247; Z.LYZ.NS [2, 6]: −0.741; Z.CTG (ENR+CD organoids; dose 0.08 uM): −0.035; Z.CTG (ENR+CD organoids; dose 0.40 uM): −0.387; Z.CTG (ENR+CD organoids; dose 2.00 uM): 0.217; Z.CTG (ENR+CD organoids; dose 10.00 uM): −0.057"
